Measured values as given in ChEMBL document CHEMBL3856280, “Targeting the HSP60/10 chaperonin systems of Trypanosoma brucei as a strategy for treating African sleeping sickness” (Bioorg Med Chem Lett, 2016).

Legend:
[1] = test system: Trypanosoma brucei brucei; assay: Antitrypanosomal activity against Trypanosoma brucei brucei Lister 427 VSG 221 [TetR T7RNAP] transgenic bloodstream forms assessed as reduction in cell viability after 48 hrs by alamar blue assay; format: functional; details: Lister 427 VSG 221, 48 h
E. coli GroEL/ES [2] = biological target: T1, E. coli GroEL/ES (Escherichia coli, UniProt P0A6F5); assay: Inhibition of Escherichia coli GroEL/GroES expressed in Escherichia coli DH5alpha/BL21 (DE3) assessed as inhibition of denatured MDH refolding preincubated for 10 mins followed by ATP addition measured after 20 to 40 mins by fluorescence based assay
HSP60/HSP10 [3] = biological target: T2, HSP60/HSP10 (Homo sapiens, UniProt P10809); assay: Inhibition of human mitochondrial HSP60/HSP10 expressed in Escherichia coli DH5alpha/BL21 (DE3) assessed as inhibition of denatured MDH refolding preincubated for 10 mins followed by ATP addition measured after 40 to 60 mins by fluorescence based assay
E. coli GroEL/ES [4] = biological target: T1, E. coli GroEL/ES; assay: Inhibition of Escherichia coli GroEL/GroES-ATPase activity expressed in Escherichia coli DH5alpha/BL21 (DE3) assessed as inhibition of denatured MDH refolding preincubated for 10 mins followed by ATP addition measured after 20 to 40 mins by malachite green dye based fluorescence assay
HSP60/HSP10 [5] = biological target: T2, HSP60/HSP10; assay: Inhibition of human mitochondrial HSP60/HSP10-ATPase activity expressed in Escherichia coli DH5alpha/BL21 (DE3) assessed as inhibition of denatured MDH refolding preincubated for 10 mins followed by ATP addition measured after 40 to 60 mins by malachite green dye based fluorescence assay
[6] = Cytotoxicity against human THLE3 cells assessed as reduction in cell viability after 48 hrs by alamar blue assay; format: toxicity, cell-based
[7] = Cytotoxicity against HEK293 cells assessed as reduction in cell viability after 48 hrs by alamar blue assay; format: toxicity, cell-based; details: human
[8] = Inhibition of pig heart native MDH reporter reaction after 20 to 40 mins by fluorescence based assay; parameters: species or system Sus scrofa

T1 sequence (P0A6F5 whole entry, looked up): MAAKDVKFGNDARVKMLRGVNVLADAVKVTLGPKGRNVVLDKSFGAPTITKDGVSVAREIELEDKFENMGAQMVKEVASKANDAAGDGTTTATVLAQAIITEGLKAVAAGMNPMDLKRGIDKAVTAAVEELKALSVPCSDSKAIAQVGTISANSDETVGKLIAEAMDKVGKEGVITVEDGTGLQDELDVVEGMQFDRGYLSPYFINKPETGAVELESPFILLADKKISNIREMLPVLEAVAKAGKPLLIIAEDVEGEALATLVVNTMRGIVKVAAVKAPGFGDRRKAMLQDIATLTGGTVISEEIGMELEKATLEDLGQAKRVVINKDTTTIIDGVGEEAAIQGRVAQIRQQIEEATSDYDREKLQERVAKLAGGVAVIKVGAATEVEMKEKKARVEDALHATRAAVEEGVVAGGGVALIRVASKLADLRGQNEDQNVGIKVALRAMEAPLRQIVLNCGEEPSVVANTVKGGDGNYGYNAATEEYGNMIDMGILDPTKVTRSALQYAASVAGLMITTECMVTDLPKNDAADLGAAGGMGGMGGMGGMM
T2 sequence (P10809 whole entry): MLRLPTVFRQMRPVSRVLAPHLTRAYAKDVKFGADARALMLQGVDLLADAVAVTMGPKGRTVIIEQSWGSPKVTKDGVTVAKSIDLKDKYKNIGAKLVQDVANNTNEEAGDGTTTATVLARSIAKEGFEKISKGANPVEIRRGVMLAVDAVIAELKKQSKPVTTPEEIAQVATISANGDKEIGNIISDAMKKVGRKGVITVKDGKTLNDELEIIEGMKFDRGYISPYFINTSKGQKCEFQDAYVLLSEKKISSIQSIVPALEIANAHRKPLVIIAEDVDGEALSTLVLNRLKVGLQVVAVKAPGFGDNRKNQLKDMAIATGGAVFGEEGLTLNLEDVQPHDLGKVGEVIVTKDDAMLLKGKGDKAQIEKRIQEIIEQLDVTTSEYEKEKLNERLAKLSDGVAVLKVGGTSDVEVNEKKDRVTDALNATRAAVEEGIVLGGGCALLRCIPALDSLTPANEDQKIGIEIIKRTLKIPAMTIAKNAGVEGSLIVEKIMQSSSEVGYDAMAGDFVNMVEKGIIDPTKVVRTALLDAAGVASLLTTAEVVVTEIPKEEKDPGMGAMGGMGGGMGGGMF
T2 sequence (P61604 whole entry, further chain): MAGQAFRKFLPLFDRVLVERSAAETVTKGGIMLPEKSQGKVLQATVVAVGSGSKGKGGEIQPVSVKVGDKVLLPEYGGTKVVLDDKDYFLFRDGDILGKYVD

SMILES	EC50 [1] [µM]	IC50 (E. coli GroEL/ES [2]) [µM]	IC50 (HSP60/HSP10 [3]) [µM]	IC50 (E. coli GroEL/ES [4]) [µM]	IC50 (HSP60/HSP10 [5]) [µM]	EC50 at 48 h [6] [µM]	EC50 at 48 h [7] [µM]	IC50 [8] [µM]
O=S(=O)(Nc1ccc(-c2nc3cc(NS(=O)(=O)c4ccccc4O)ccc3o2)cc1)c1ccccc1O	5	7.5	13	36	33	19	18	
COc1ccc(S(=O)(=O)Nc2ccc(-c3nc4cc(NS(=O)(=O)c5ccc(OC)cc5)ccc4o3)cc2)cc1	3.3	36	> 100	84	> 250	> 100	88	> 63
Nc1ccccc1S(=O)(=O)Nc1ccc(-c2nc3cc(NS(=O)(=O)c4ccccc4N)ccc3o2)cc1	3.3	10	> 100	> 250	> 250	18	14	> 63
CCCS(=O)(=O)Nc1ccc(-c2nc3cc(NS(=O)(=O)CCC)ccc3o2)cc1	18	> 100	> 100	> 250	> 250	> 100	> 100	> 63
COc1ccccc1S(=O)(=O)Nc1ccc(-c2nc3cc(NS(=O)(=O)c4ccccc4OC)ccc3o2)cc1	2.7	69	> 100	> 250	> 250	> 100	79	> 63
Nc1ccc(S(=O)(=O)Nc2ccc(-c3nc4cc(NS(=O)(=O)c5ccc(N)cc5)ccc4o3)cc2)cc1	22	1.4	68	1.7	224	38	59	> 63
O=S(=O)(Nc1ccc(-c2nc3cc(NS(=O)(=O)c4ccccc4C(F)(F)F)ccc3o2)cc1)c1ccccc1C(F)(F)F	28	25	> 100	21	> 250	50	66	> 63
N#Cc1ccc(S(=O)(=O)Nc2ccc(-c3nc4cc(NS(=O)(=O)c5ccc(C#N)cc5)ccc4o3)cc2)cc1	16	37	64	> 250	> 250	79	45	> 63
COc1cccc(S(=O)(=O)Nc2ccc(-c3nc4cc(NS(=O)(=O)c5cccc(OC)c5)ccc4o3)cc2)c1	5.1	48	> 100	> 250	> 250	15	28	> 63
O=c1ccc2cc(S(=O)(=O)Nc3ccc(-c4nc5cc(NS(=O)(=O)c6ccc7oc(=O)ccc7c6)ccc5o4)cc3)ccc2o1	> 42	18	70	83	201	> 100	> 100	> 63
O=S(=O)(Nc1ccc(-c2nc3cc(NS(=O)(=O)c4cccc(F)c4)ccc3o2)cc1)c1cccc(F)c1	10	5.3	68	5.1	> 250	20	24	> 63
O=S(=O)(Nc1ccc(-c2nc3cc(NS(=O)(=O)c4ccc(Cl)cc4)ccc3o2)cc1)c1ccc(Cl)cc1	3.2	23	96	35	> 250	18	13	> 63
O=S(=O)(Nc1ccc(-c2nc3cc(NS(=O)(=O)c4cccc5nonc45)ccc3o2)cc1)c1cccc2nonc12	> 42	32	66	> 250	212	58	45	> 63
O=S(=O)(Nc1ccc(-c2nc3cc(NS(=O)(=O)c4cccc5nsnc45)ccc3o2)cc1)c1cccc2nsnc12	> 42	22	98	127	152	> 100	52	> 63
O=S(=O)(Nc1ccc(-c2nc3cc(NS(=O)(=O)c4ccccc4Br)ccc3o2)cc1)c1ccccc1Br	28	63	> 100	144	> 250	37	28	> 63
O=S(=O)(Nc1ccc(-c2nc3cc(NS(=O)(=O)c4ccccc4F)ccc3o2)cc1)c1ccccc1F	19	22	77	> 250	> 250	55	31	> 63
CC1CS(=O)(=O)CCN1/N=C/c1ccc([N+](=O)[O-])o1 (stereo unspecified) [NIFURTIMOX]	2.8	> 100	> 100	> 250	> 250	> 100	> 100	> 63
O=[N+]([O-])c1ccc(S(=O)(=O)Nc2ccc(-c3nc4cc(NS(=O)(=O)c5ccc([N+](=O)[O-])cc5)ccc4o3)cc2)cc1	15	26	65	> 250	> 250	36	59	> 63
O=S(=O)(Nc1ccc(-c2nc3cc(NS(=O)(=O)c4cccc5ccccc45)ccc3o2)cc1)c1cccc2ccccc12	2.1	23	> 100	54	144	69	> 100	> 63
O=S(=O)(Nc1ccc(-c2nc3cc(NS(=O)(=O)c4ccccc4)ccc3o2)cc1)c1ccccc1	6.4	3.9	> 100	4.6	> 250	19	15	> 63
N#Cc1cccc(S(=O)(=O)Nc2ccc(-c3nc4cc(NS(=O)(=O)c5cccc(C#N)c5)ccc4o3)cc2)c1	39	7.6	91	4.1	> 250	91	45	> 63
Cc1ccc(C(=O)Nc2ccc(S(=O)(=O)O)c3cc(S(=O)(=O)O)cc(S(=O)(=O)O)c23)cc1NC(=O)c1cccc(NC(=O)Nc2cccc(C(=O)Nc3cc(C(=O)Nc4ccc(S(=O)(=O)O)c5cc(S(=O)(=O)O)cc(S(=O)(=O)O)c45)ccc3C)c2)c1 [SURAMIN]	0.12	7.9	11	> 250	> 250	> 100	> 100	> 63
Nc1cccc(S(=O)(=O)Nc2ccc(-c3nc4cc(NS(=O)(=O)c5cccc(N)c5)ccc4o3)cc2)c1	15	2.8	87	9.6	127	30	58	> 63
O=[N+]([O-])c1cccc(S(=O)(=O)Nc2ccc(-c3nc4cc(NS(=O)(=O)c5cccc([N+](=O)[O-])c5)ccc4o3)cc2)c1	11	11	60	> 250	> 250	37	46	> 63
O=S(=O)(Nc1ccc(-c2nc3cc(NS(=O)(=O)c4ccc(O)cc4)ccc3o2)cc1)c1ccc(O)cc1	21	0.34	11	0.31	59	41	38	50
O=S(=O)(Nc1ccc(-c2nc3cc(NS(=O)(=O)c4ccc(C(F)(F)F)cc4)ccc3o2)cc1)c1ccc(C(F)(F)F)cc1	4.1	35	61	> 250	> 250	21	> 100	> 63
O=S(=O)(Nc1ccc(-c2nc3cc(NS(=O)(=O)c4ccccc4Cl)ccc3o2)cc1)c1ccccc1Cl	5.9	46	> 100	131	> 250	24	75	> 63
O=[N+]([O-])c1ccccc1S(=O)(=O)Nc1ccc(-c2nc3cc(NS(=O)(=O)c4ccccc4[N+](=O)[O-])ccc3o2)cc1	> 42	3.6	75	3.1	194	93	60	> 63
COC(=O)c1ccc(S(=O)(=O)Nc2ccc(-c3nc4cc(NS(=O)(=O)c5ccc(C(=O)OC)cc5)ccc4o3)cc2)cc1	23	26	87	91	> 250	> 100	> 100	> 63
